Data on five molecules can be found in patent US8450305B2, “Macrocyclic compounds useful as inhibitors of kinases and HSP90” (Universite de Strasbourg, priority 2006, dated 2013).

What is called IC50 is the concentration that inhibits the measured activity by half.

Holding throughout (assay type): biochemical
One assay deals with T1, VEGF-R3 (Homo sapiens, UniProt P35916).
T1 construct: host or cells: Sf9 insect cells (baculovirus)
Kind of assay: Radiometric protein kinase assay, VEGF-R3. The settings on record: 1 μM ATP; read-out: Inhibitory activity (IC50:μM) VEGF-R3. The source says: (§1) All protein kinases were expressed in Sf9 insect cells as human recombinant GST-fusion proteins or His-tagged proteins by means of the baculovirus expression system. Kinases were purified by affinity chromatography using either GSH-agarose (Sigma) or Ni-NTH-agarose (Qiagen). The purity of each kinase was checked by SDS-PAGE/silver staining and the identity of each kinase was verified by western blot analysis with kinase specific antibodies or by mass spectroscopy.
(§2) A radiometric protein kinase assay (^33PanQinase® Activity Assay) was used for measuring the kinase activity of the 24 protein kinases. All kinase assays were performed in 96-well FlashPlates™ from Perkin Elmer (Boston, Mass., USA) in a 50 μl reaction volume. The reaction cocktail was pipetted in 4 steps in the following order: • 20 μl of assay buffer • 5 μl of ATP solution (in H2O) • 5 μl of test compound (in 10% DMSO) • 10 μl of substrate/10 […] of enzyme solution (premixed)
(§3) The assay for all enzymes contained 60 mM HEPES-NaOH, pH 7.5, 3 mM MgCl2, 3 mM MnCl2, 3 μM Na-orthovanadate, 1.2 mM DTT, 50 μg/ml PEG20000, 1 μM [γ-^33P]-ATP (approx. 5×10^05 cpm per well).
(§4) For the 24 kinase assays, the following amounts of enzyme and substrate were used per well:
(§5) The reaction cocktails were incubated at 30° C. for 80 minutes. The reaction was stopped with 50 μl of 2% (v/v) H3PO4, plates were aspirated and washed two times with 200 μl of 0.9% (w/v) NaCl or 200 μl H2O. Incorporation of ^33Pi was determined with a microplate scintillation counter (Microbeta Trilux, Wallac).
(§6) The median value of the counts in column 1 (n=8) of each assay plate was defined as “low control”. This value reflects unspecific binding of radioactivity to the plate in the absence of a protein kinase but in the presence of the substrate. The median value of the counts in column 7 of each assay plate (n=8) was taken as the “high control”, i.e. full activity in the absence of any inhibitor. The difference between high and low control was taken as 100% activity.
(§7) As part of the data evaluation the low control value from a particular plate was subtracted from the high control value as well as from all 80 “compound values” of the corresponding plate. The residual activity (in %) for each well of a particular plate was calculated by using the following formula: Res. Activity (%)=100×[(cpm of compound−low control)/(high control−low control)]
(§8) The residual activities for each concentration and the compound IC50 values were calculated using Quattro Workflow V2.1.0.0 (Quattro Research GmbH, Munich, Germany; www.quattro-research.com). The model used was “Sigmoidal response (variable slope)” with parameters “top” fixed at 100% and “bottom” at 0%.

For another assay, the target named is T2, SAK (Homo sapiens, UniProt O00444).
T2 construct: host or cells: Sf9 insect cells (baculovirus)
T2 sequence (O00444 1-970): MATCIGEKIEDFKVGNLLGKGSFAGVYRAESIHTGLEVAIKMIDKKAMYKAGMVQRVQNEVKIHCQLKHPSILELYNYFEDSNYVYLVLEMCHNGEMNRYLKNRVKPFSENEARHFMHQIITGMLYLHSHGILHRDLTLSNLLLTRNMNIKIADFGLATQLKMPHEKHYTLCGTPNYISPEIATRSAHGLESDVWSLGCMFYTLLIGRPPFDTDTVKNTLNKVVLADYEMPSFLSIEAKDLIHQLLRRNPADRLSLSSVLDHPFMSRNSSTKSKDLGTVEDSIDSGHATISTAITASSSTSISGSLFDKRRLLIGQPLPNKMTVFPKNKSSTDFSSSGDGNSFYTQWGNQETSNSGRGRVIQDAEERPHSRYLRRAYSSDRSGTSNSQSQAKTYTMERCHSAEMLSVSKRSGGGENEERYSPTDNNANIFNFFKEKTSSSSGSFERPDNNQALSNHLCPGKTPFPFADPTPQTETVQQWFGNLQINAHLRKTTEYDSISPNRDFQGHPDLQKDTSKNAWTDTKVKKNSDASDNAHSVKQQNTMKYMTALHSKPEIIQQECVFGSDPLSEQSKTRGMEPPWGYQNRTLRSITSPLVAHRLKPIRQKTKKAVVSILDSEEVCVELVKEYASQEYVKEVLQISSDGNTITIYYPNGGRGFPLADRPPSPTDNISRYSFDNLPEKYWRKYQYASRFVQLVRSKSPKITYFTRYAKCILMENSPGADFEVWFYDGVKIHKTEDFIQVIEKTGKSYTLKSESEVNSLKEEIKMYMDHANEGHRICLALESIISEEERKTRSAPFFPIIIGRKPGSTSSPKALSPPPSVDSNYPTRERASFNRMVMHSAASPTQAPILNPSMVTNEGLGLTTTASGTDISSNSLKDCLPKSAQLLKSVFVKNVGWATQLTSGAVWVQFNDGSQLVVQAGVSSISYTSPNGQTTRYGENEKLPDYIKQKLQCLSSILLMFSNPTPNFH
Kind of assay: Radiometric protein kinase assay, SAK. The settings on record: 1 μM ATP; read-out: Inhibitory activity (IC50:μM) SAK.
Source text: as §1, §2, §3, §4, §5, §6, §7, §8

The next assay has as its target T3, MET (Homo sapiens, UniProt P08581).
T3 construct: host or cells: Sf9 insect cells (baculovirus)
Kind of assay: Radiometric protein kinase assay, MET. The following applies: 1 μM ATP; read-out: Inhibitory activity (IC50:μM) MET.
Source text: as §1
A radiometric protein kinase assay (^33PanQinase® Activity Assay) was used for measuring the kinase activity of the 24 protein kinases. All kinase assays were performed in 96-well FlashPlates™ from Perkin Elmer (Boston, Mass., USA) in a 50 μl reaction volume. The reaction cocktail was pipetted in 4 steps in the following order: • 20 μl of assay buffer • 5 μl of ATP solution (in H2O) • 5 μl of test compound (in 10% DMSO) • 10 μl of substrate/10 […] of enzyme solution (premixed) […]
The reaction cocktails were incubated at 30° C. for 80 minutes. […] Incorporation of ^33Pi was determined with a microplate scintillation counter (Microbeta Trilux, Wallac).
The median value of the counts in column 1 (n=8) of each assay plate was defined as “low control”. This value reflects unspecific binding of radioactivity to the plate in the absence of a protein kinase but in the presence of the substrate. […]
as §7
The residual activities for each concentration and the compound IC50 values were calculated using Quattro Workflow V2.1.0.0 (Quattro Research GmbH, Munich, Germany; www.quattro-research.com). […]

The next assay addresses T4, Aurora-B (Homo sapiens, UniProt Q96GD4).
T4 construct: host or cells: Sf9 insect cells (baculovirus)
Briefly: Radiometric protein kinase assay, Aurora-B. The settings on record: 1 μM ATP; read-out: Inhibitory activity (IC50:μM) Aurora-B.
Source text: as §1, §2, §3, §4, §5, §6, §7, §8

For another assay, the target named is T5, IGF1-R (Homo sapiens, UniProt P08069).
T5 construct: host or cells: Sf9 insect cells (baculovirus)
T5 sequence (P08069 31-1367): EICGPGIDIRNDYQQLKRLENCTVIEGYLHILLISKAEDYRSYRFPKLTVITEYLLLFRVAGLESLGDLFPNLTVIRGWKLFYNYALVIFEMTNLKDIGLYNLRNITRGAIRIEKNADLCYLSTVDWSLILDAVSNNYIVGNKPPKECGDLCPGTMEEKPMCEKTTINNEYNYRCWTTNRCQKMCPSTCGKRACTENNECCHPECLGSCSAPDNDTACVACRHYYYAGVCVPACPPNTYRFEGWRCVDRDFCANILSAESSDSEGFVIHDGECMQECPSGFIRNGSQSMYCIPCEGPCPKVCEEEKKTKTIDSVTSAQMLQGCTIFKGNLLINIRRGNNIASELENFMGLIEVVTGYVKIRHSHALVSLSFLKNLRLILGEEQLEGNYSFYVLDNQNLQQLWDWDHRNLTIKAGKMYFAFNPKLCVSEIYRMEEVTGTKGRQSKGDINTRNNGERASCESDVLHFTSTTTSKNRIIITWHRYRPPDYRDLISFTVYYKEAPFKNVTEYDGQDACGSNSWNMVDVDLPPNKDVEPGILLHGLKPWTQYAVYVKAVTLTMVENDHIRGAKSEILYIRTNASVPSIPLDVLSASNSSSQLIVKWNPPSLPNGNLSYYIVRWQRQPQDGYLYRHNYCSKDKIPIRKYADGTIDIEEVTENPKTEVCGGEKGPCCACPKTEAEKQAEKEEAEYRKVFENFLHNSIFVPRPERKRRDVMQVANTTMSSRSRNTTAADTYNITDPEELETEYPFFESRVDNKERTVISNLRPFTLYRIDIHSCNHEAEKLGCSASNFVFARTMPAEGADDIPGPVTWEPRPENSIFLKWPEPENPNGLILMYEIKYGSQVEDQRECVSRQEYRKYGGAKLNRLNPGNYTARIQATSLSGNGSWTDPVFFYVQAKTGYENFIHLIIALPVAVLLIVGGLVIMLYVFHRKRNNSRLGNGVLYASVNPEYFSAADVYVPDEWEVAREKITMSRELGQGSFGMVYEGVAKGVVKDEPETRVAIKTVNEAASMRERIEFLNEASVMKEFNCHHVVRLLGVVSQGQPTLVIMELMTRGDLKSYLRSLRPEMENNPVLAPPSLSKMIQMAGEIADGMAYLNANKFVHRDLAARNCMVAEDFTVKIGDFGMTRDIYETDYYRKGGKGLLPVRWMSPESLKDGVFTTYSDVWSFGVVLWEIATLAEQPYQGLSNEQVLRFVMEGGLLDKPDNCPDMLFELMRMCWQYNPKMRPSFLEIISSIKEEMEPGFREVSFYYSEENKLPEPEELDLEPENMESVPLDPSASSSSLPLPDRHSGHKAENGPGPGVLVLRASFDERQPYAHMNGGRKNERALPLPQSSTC
Briefly: Radiometric protein kinase assay, IGF1-R. The settings on record: 1 μM ATP; read-out: Inhibitory activity (IC50:μM) IGF1-R.
Source text: as §1, §2, §3, §4, §5, §6, §7, §8

Another assay concerns the target T6, EGF-R (Homo sapiens, UniProt P00533).
T6 construct: host or cells: Sf9 insect cells (baculovirus)
Kind of assay: Radiometric protein kinase assay, EGF-R. The following applies: 1 μM ATP; read-out: Inhibitory activity (IC50:μM) EGF-R.
Source text: as §1, §2, §3, §4, §5, §6, §7, §8

T6 sequence (P00533 25-1210): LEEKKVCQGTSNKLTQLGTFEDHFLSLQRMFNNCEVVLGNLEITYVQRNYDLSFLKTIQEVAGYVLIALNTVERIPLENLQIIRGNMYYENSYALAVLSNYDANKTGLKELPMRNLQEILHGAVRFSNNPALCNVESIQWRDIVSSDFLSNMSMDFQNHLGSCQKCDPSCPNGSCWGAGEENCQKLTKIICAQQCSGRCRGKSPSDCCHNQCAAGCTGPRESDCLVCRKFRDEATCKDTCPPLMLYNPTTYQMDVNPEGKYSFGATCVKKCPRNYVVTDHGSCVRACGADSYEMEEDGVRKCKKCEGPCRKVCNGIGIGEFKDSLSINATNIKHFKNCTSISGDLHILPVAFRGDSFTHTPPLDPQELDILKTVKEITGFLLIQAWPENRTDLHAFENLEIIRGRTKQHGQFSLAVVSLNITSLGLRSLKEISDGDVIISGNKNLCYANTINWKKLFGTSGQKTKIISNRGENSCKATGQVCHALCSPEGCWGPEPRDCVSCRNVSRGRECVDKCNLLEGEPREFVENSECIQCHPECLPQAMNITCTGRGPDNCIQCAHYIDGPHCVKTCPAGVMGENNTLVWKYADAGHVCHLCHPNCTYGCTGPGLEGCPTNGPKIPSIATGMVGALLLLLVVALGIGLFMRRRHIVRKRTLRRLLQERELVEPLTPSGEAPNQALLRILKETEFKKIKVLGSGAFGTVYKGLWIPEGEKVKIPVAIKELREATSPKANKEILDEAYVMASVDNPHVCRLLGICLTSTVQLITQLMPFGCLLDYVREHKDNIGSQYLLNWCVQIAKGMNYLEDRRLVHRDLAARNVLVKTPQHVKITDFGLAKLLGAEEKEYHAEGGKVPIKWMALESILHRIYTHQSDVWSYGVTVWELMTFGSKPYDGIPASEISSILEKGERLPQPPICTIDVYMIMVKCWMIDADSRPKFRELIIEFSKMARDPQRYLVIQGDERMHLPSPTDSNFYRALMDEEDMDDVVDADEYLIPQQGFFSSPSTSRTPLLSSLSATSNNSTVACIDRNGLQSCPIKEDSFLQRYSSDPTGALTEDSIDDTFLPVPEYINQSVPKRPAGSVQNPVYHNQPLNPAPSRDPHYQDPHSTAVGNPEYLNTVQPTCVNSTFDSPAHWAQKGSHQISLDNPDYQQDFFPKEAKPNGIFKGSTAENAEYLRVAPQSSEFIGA
T3 sequence (P08581 25-1390): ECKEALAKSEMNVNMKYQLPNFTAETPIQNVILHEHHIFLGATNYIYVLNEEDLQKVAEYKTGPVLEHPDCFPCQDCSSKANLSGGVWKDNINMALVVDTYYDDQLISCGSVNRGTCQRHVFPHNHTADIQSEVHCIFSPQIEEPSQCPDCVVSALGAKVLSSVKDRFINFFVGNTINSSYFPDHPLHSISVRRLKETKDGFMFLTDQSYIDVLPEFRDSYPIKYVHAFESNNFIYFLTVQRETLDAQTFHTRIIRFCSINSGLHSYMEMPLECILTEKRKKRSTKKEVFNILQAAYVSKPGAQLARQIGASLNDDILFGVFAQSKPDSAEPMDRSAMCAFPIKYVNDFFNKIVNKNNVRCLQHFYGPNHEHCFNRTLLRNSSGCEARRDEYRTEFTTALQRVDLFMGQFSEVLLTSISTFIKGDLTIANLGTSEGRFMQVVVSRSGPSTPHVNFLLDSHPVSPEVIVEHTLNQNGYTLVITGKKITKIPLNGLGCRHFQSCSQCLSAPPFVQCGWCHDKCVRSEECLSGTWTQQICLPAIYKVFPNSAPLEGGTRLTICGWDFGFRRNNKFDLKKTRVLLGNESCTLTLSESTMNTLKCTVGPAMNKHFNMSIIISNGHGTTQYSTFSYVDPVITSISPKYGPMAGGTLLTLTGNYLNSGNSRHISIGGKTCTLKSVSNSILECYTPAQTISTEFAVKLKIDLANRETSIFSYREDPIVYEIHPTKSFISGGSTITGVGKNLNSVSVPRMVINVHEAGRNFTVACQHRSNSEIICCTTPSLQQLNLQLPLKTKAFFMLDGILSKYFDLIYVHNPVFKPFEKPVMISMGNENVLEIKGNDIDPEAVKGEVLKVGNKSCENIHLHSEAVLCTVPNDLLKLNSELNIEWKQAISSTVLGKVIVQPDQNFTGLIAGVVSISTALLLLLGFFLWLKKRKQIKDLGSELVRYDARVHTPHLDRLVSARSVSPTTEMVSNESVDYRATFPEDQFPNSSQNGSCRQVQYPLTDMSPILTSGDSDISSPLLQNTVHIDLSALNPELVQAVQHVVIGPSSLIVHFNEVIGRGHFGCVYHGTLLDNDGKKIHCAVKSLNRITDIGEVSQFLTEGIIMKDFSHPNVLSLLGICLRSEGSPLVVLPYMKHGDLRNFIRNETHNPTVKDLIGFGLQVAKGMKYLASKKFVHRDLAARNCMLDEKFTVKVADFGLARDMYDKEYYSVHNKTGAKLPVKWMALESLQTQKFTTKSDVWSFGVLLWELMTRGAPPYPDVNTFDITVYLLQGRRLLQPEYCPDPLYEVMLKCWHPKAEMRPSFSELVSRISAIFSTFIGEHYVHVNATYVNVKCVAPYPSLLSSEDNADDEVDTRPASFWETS
T4 sequence (Q96GD4 whole entry): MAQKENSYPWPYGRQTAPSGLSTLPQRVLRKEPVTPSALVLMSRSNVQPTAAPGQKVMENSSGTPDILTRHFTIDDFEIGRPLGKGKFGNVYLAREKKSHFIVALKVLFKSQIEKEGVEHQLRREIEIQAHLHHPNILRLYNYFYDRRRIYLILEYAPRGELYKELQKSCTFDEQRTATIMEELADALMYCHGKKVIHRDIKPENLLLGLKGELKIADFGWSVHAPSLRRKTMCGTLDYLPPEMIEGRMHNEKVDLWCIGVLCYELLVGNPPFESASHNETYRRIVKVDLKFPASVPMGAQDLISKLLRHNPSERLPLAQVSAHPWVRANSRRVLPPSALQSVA

On to `COC1CC/C=C/C[C@H](c2ccccc2)OC(=O)c2c(O)cc(O)c(Cl)c2CC(=O)C1` (some centres unmarked) [A-2], for which the IC50 was determined as 40 µM at VEGF-R3; 17 µM on SAK; 32 µM on MET; 16 µM at Aurora-B; 16 µM at IGF1-R; 10 µM at EGF-R.
As to `O=C1Cc2c(Cl)c(O)cc(O)c2C(=O)O[C@H](c2ccccc2)C/C=C/CCC(Cl)C1` (some centres unmarked) [A-3], the IC50 on VEGF-R3 is 19 µM; on SAK it was 25 µM; at MET, 29 µM; on Aurora-B, 14 µM; on IGF1-R it was 19 µM; on EGF-R it was 14 µM.
For the molecule `CC(C)[C@@H]1CC2OC2CC/C=C/C(=O)Cc2c(Cl)c(O)cc(O)c2C(=O)O1` (some centres unmarked) [A-4], the IC50 at VEGF-R3 was 31 µM; at SAK, 19 µM; at Aurora-B, 36 µM; at IGF1-R, 13 µM; at EGF-R, 22 µM.
As to `O=C1/C=C/CCC2OC2C[C@H](c2ccccc2)OC(=O)c2c(O)cc(O)c(Cl)c2C1` (some centres unmarked) [A-5], the IC50 on VEGF-R3 came to 31 µM; at SAK it was 20 µM; on EGF-R it was 16 µM.
`O=C1/C=C/CCC2OC2C[C@@H](Cc2ccccc2)OC(=O)c2c(O)cc(O)cc2C1` (some centres unmarked) [A-6]: the IC50 at VEGF-R3 turned out to be 34 µM; at SAK, 17 µM; on MET it was 36 µM; at Aurora-B it was 16 µM; at IGF1-R it was 21 µM; at EGF-R, 32 µM.
